Data from patent publication EP0231622B1, “Inhibition of the 5-lipoxygenase pathway” (priority 1985, dated 1987).
Read-outs that look alike come from different tables or passages of the source.

Experiments:
[1] = system: Production of PGE₂ by Mouse Peritoneal Exudate Cells; test: PGE2 production by peritoneal macrophages; assay type: cell-based
Experimental: (§1) For in vitro experiments, compounds were dissolved at appropriate concentrations in ethanol or DMSO (dimethylsulfoxide) (final concentration <1.0%) and then diluted to final concentrations using the buffers indicated in the text.
Mice were injected intraperitoneally with 350 »g Corynebacterium parvum and the peritoneal exudate cell population was harvested 12-14 days later by peritoneal lavage with cold phosphate-buffered saline, and resuspended in Eagles minimal essential medium supplemented with 5% fetal calf serum. […] Test compounds were added (100 ul) to bring the final volume to 1.0 ml. Lipopolysaccharide (5 »g/ml) was then added to stimulate PGE₂ synthesis. After incubation at 37°C for 2 hours, cell-free supernatants were harvested, placed in polypropylene tubes and frozen at -20°C until assayed for their PGE₂ content using a commercial radioimmunoassay kit. IC₅₀ is the concentration that inhibits 50% of control activity.

5-LO = molecular target: T1, 5-LO (Rattus norvegicus, UniProt P12527); test: di-HETE production by RBL-1 high speed supernatant; assay type: biochemical
T1 construct: The activities of these enzymes in extracts of RBL-1 cells were assayed; host or cells: RBL-1 cells, disrupted by nitrogen cavitation; 10,000 x g or 100,000 x g supernatant
T1 sequence (P12527 1-673): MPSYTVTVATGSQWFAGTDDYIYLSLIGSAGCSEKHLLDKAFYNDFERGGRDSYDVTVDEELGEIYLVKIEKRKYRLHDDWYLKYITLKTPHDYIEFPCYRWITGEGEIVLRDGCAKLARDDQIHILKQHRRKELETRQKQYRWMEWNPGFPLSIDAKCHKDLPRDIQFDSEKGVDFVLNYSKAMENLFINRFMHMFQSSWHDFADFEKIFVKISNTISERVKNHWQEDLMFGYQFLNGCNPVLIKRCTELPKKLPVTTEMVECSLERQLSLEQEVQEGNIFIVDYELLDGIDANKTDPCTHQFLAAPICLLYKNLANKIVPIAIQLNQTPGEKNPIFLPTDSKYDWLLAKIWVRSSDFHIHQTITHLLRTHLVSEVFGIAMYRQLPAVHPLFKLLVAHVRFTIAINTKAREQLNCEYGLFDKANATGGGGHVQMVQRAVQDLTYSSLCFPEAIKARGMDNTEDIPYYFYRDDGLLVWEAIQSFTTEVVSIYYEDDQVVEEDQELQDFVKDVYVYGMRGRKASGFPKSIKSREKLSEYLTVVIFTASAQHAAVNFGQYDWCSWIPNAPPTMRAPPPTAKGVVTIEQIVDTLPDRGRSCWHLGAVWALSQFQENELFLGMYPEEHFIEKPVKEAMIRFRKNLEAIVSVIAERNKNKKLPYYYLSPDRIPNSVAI
How it was run: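 RBL-1 cell 100,000 x g supernatant was preincubated 10 min with compound, then given CaCl₂ and 25 uM [¹⁴C]arachidonic acid for 3 min at 37°C. 5-HETE and di-HETE were quantified by TLC radioscanning. A variant re-centrifuged the supernatant and incubated 5 min at 5°C with 2 mM CaCl₂.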

5-Lipoxygenase = molecular target: T2, 5-Lipoxygenase (Rattus norvegicus, UniProt P12527); test: 5-HETE production by RBL-1 high speed supernatant; assay type: biochemical
T2 construct: The activities of these enzymes in extracts of RBL-1 cells were assayed; host or cells: RBL-1 cells, disrupted by nitrogen cavitation; 10,000 x g or 100,000 x g supernatant
T2 sequence (P12527 1-673): T1 sequence (P12527 1-673)
Experimental: as §1
The activities of these enzymes in extracts of RBL-1 cells were assayed using the method of Jakschik and Lee, Nature, 287, 51-52 (1980). RBL-1 cells were obtained from the American Type Culture Collection (#CRL 1378) and were grown at 37°C (5% CO₂ in air) in spinner culture in MEM supplemented with 10% heat inactivated fetal calf serum. Harvested cells were washed with 50 mM sodium phosphate buffer, pH 7.0, containing 1 mM EDTA and 0.1% gelatin, resuspended in fresh buffer (5 x 10⁷ cells/ml) and disrupted by nitrogen cavitation using the Parr bomb at 750 psi for 10 min. The broken cell extract was then centrifuged at 10,000 x g for 20 minutes and the supernatant centrifuged at 100,000 x g for 60 minutes. Aliquots (0.25 mls) of the supernatant were preincubated with or without drugs for 10 min, after which 10 ul CaCl₂ (50 mM) was added and the reaction was initiated with 2.5 ul of 2.5 mM arachidonic acid-1-¹⁴C (final concentration was […]; specific activity 20,000 dpm/nmole). After incubation for 3 min at 37°C, the reaction was terminated by addition of 2 volumes (0.5 ml) ice cold acetone and the sample was allowed to deproteinize on ice for 10 min prior to centrifugation at 1,000 x g for 10 min. The deproteinized supernatant was adjusted to pH 3.5 with 2N formic acid and extracted with 2 volumes of ice cold ethyl acetate. The extracted samples were dried under argon, redissolved in ethyl acetate and applied to Whatman LK5D thin layer chromatography (TLC) plates which were developed using the A-9 solvent system [organic phase of ethyl acetate: 2,2,5-trimethylpentane:acetic acid: water (110:50:20:10)] described by Hamberg and Samuelsson, J. Biol. Chem., 241, 257-263 (1966). Arachidonic acid, 5-HETE, di-HETE and PGD₂ were quantified with a Berthold LB 2832 autoscanner.
The 5-lipoxygenase and LTA₄ synthetase activities were further studied under the following conditions. An additional centrifugation of the RBL-1 supernatant was run at 100,000 x g for 60 min, to remove the particulate cyclooxygenase activity. Sample incubation was done under conditions similar to those described above, i.e., 2 mM CaCl₂ and 25 uM arachidonic acid-1-¹⁴C, however, with an incubation time of 5 min at […]. Under these conditions, only the 5-lipoxygenase pathway metabolites were detectable. The 5-HETE and di-HETEs were formed at a linear rate, and […] amounts of the arachidonic acid-1-¹⁴C substrate were utilized.

## Fc1ccc(-c2nc3n(c2-c2ccncc2)CCS3)cc1 [Compound 1, 5-(4-pyridyl)-6-(4-fluorophenyl)-2,3-dihydroimidazo[2,1-b]thiazole]
[1]; Macrophage, read-out: IC₅₀ production of PGE₂ by inflammatory macrophages
  IC50: 700 nM
[1]; Peritoneal macrophage, Table 10, LPS-stimulated, C. parvum-elicited peritoneal exudate cells, read-out: IC₅₀ (»M) production of PGE₂
  IC50: 700 nM
5-LO; 1 uM
  Di-HETE (nM/ml): 1.56 ± 0.06 nM/ml
5-LO; 1 uM, read-out: % Control (Di-HETE)
  inhibition at 1 µM: 19.7%
5-LO; 3.3 uM
  Di-HETE (nM/ml): 1.34 ± 0.12 nM/ml
5-LO; 3.3 uM, read-out: % Control (Di-HETE)
  inhibition at 3.3 µM: 30.9%
5-LO; 10 uM
  Di-HETE (nM/ml): 0.88 ± 0.21 nM/ml
5-LO; 10 uM, read-out: % Control (Di-HETE)
  inhibition at 10 µM: 54.8%
5-LO; 33 uM
  Di-HETE (nM/ml): 0.40 ± 0.08 nM/ml
5-LO; 33 uM, read-out: % Control (Di-HETE)
  inhibition at 33 µM: 79.6%
5-LO; 100 uM
  Di-HETE (nM/ml): 0.03 ± 0.04 nM/ml
5-LO; 100 uM, read-out: % Control (Di-HETE)
  inhibition at 100 µM: 98.3%
5-LO; soluble extract of RBL-1 cells containing only lipoxygenase activity, read-out: IC₅₀ eicosanoid formation (di-HETE production)
  IC50: 7500 nM
5-Lipoxygenase; 1 uM
  5-HETE (nM/ml): 8.86 ± 0.31 nM/ml
5-Lipoxygenase; 1 uM, read-out: % Control (5-HETE)
  inhibition at 1 µM: 12.7%
5-Lipoxygenase; 3.3 uM
  5-HETE (nM/ml): 7.63 ± 0.44 nM/ml
5-Lipoxygenase; 3.3 uM, read-out: % Control (5-HETE)
  inhibition at 3.3 µM: 24.9%
5-Lipoxygenase; 10 uM
  5-HETE (nM/ml): 5.57 ± 0.35 nM/ml
5-Lipoxygenase; 10 uM, read-out: % Control (5-HETE)
  inhibition at 10 µM: 45.1%
5-Lipoxygenase; 33 uM
  5-HETE (nM/ml): 3.36 ± 0.07 nM/ml
5-Lipoxygenase; 33 uM, read-out: % Control (5-HETE)
  inhibition at 33 µM: 67.9%
5-Lipoxygenase; 100 uM
  5-HETE (nM/ml): 1.08 ± 0.13 nM/ml
5-Lipoxygenase; 100 uM, read-out: % Control (5-HETE)
  inhibition at 100 µM: 89.4%
